These results are taken from US5962525A, “6,7-disubstituted-2-aminotetralines active as immunomodulators and pharmaceutical compositions containing same” (Sigma-Tau, priority 1990, dated 1999).

Read-outs that look alike come from different tables or passages of the source.

One series can be described thus: LD50, intravenous. The settings on record: mouse, in vivo, 0.9% saline. On the procedure:
LD50 was determined according to Carrol S. Weil's method, Biometrics, pages 249-263 (1952) in male Swiss albino mice weighing 22-24 g.
The various compounds dissolved in 0.9% saline were administered intravenously.

For series [1], the system named is murine peritoneal exudate cells (PEC). In words: "In vitro-ex vivo" effect on the phagocytic activity of exudate peritoneal cells (SRBC phagocytosis). On the set-up: species or system mouse (B6 D2 F1). The settings on record: 25 mg/kg/day i.p. The procedure:
Assessment of the "in vitro-ex vivo" effect of ST 557, ST 563, ST 564, ST 570, ST 608 and ST 626 on the phagocytic activity of exudate peritoneal cells (PEC)
Male B6 D2 F1 mice aged 6-8 weeks (5 animals each group) were used.
The compounds were administered i.p. (25 mg/kg/day), ST 557, ST 563 and ST 626 were also administered per os (100 mg/kg/day) from day -5 to day -1 (PEC harvesting at day 0).
The experimental procedure was substantially the same as that described by Williams et al., in "Methods in Immunology and Immunochemistry", Acad. Press. 5: 261 (1976).
In particular, 24 hours following the end of the treatment, PECs from each experimental group were harvested, pooled and their concentration was adjusted to 4×10^6 cells/ml.
To volumes of 250 μl of each PEC sample were added equal volumes of 0.4% SRBC (Sheep Red Blood Cells) opsonized with hyperimmune serum.
The samples (duplicate) were incubated for 1 hour and then subjected to hypotonic shock in order to remove the non-phagocytized SRBC. After restoring the osmolarity, the phagocytes were cytocentrifuged, stained with a differential dye and observed under the microscope.
The results were expressed as:
(a) percentage of cells that have phagocytized with respect to 100 phagocytizing cells;
(b) total number of phagocytized SRBC;
(c) average number of SRBC in each phagocyte.

The nature of series [2]: Tolerability after oral or intravenous administration. The settings on record: mouse, in vivo, 7 days observation, read-out: Tolerability, dose. On the set-up: species or system mouse (Swiss albino). The procedure:
The test was conducted in male Swiss albino mice weighing 22-24 g.
A group of animals (4 animals/dose) which had been kept fasting for 18 hours, were orally administered the compounds ST 557, ST 563, ST 564 and ST 570 dissolved in twice distilled water.
A further group of animals, which had free access to food and water, were administered intravenously the same compounds dissolved in saline it pH 7. All the animals were kept under observation for 7 days.

A further series concerns splenocytes. The series can be described thus: "In vitro-ex vivo" effect on the mytogen (PHA, ConA, LPS)-induced splenocyte proliferation in mice immunodepressed with cyclophosphamide. Further details: species or system mouse (B6 D2 F1). The following applies: for S.I. (stimulation index): with respect to the immunodepressed controls; for AUC (area under curve): immunodepressed. On the procedure: Assessment of the "in vitro-ex vivo" effect of ST 557, ST 563 ST 564 on the mytogen (PHA, ConA, LPS)-Induced splenocyte proliferation in mice Immunodepressed with cyclotohosphamide
Male B6 D2 F1 mice aged 7-9 weeks (5 mice per group) were used.
The immunosuppressor (cyclophosphamide) was administered i.p. at the dose of 100 mg/kg at day -5. The compounds were administered i.p. (25 mg/kg/day) and per os (100 mg/kg/day) from day -5 to day -1 (spleen excision at day 0).
Splenocyte proliferation was induced by three different mytogens: PHA and ConA active on T-lymphocytes, and LPS active on B-lymphocytes. Each mytogen was tested at three different concentrations (suboptimal, optimal and superoptimal) corresponding to 0.5, 4 and 6 mcg/ml/well for PHA; 0.5, 4 and 8 mcg/ml/well for ConA and 0.5, 150 and 500 mcg/ml/well for LPS.
The experimental procedure is identical to that described in test 4.
The results are expressed as both AUC (see test 4) and S.I. In order to assess the efficacy of the immunosuppressor and the activity of the tested compounds, S.I. has been determined both for the immunodepressed controls (with respect to the normal controls) and for the immunodepressed treated animals (with respect to the immunodepressed controls), respectively. [formula]

The term LD50 denotes the dose expected to kill half of the subjects tested. A high value points to lower toxicity. With `COc1ccc(OCC(O)CNC2CCc3cc(OC)c(OC)cc3C2)cc1` (stereo not shown) [ST 564, 2-[(N-2-hydroxy-3-(4-methoxyphenoxy)propyl)amino]-6,7-dimethoxytetraline], the LD50 in the series “LD50, intravenous” stood at 44.5 mg/kg. Moreover, in series [1], the Fagocytizing cells is listed as 40.0%. Further, in series [1], the “Total n° SRBC phagocytized” value came out at 126.6. Further, the “SRBC per phagocytizing cell” value in series [1] (average number of SRBC in each phagocyte) was found to be 3.2. The MTD at 168 h in series [2] (iv) is greater than 20 mg/kg; in series [2] (po, os, fasting 18 hours), greater than 50 mg/kg. Also, the “S.I. (stimulation index)” value in the series on splenocytes (ConA, 25 mg/kg/day i.p.) was 1.01; in the series with splenocytes (ConA, 100 mg/kg/day os) it was 0.78; with splenocytes (LPS, 25 mg/kg/day i.p.) it was 2.74; in the series on splenocytes (LPS, 100 mg/kg/day os), 0.65; in the series on splenocytes (PHA, 25 mg/kg/day i.p.), 2.05. The “AUC (area under curve)” value is 514 ± 10 ×10^-3 with splenocytes (ConA, 25 mg/kg/day i.p.); 577 ± 41 ×10^-3 with splenocytes (ConA, 100 mg/kg/day os); 2533 ± 314 ×10^-3 in the series with splenocytes (LPS, 25 mg/kg/day i.p.); 3023 ± 257 ×10^-3 in the series on splenocytes (LPS, 100 mg/kg/day os); 205 ± 18 ×10^-3 in the series with splenocytes (PHA, 25 mg/kg/day i.p.).
